From patent US5278065A, “Recombinant DNA endoding an erythropoietin receptor” (Genetics Institute, Inc., priority 1991, dated 1994)
Read-outs that look alike come from different tables or passages of the source.

B1: secreted EPO receptor: secreted human erythropoietin receptor lacking transmembrane and cytoplasmic domains, tested as conditioned media from a CHO line (protein, UniProt P19235 25-250, looked up)
extracellular domain: APPPNLPDPKFESKAALLAARGPEELLCFTERLEDLVCFWEEAASAGVGPGNYSFSYQLEDEPWKLCRLHQAPTARGAVRFWCSLPTADTSSFVPLELRVTAASGAPRYHRVIHINEVVLLDAPVGLVARLADESGHVVLRWLPPPETPMTSHIRYEVDVSAGNGAGSVQRVEILEGRTECVLSNLRGRTRYTFAVRARMAEPSFGGFWSAWSEPVSLLTPSDLDP
modifications: extracellular domain
notes: secreted human erythropoietin receptor lacking transmembrane and cytoplasmic domains, tested as conditioned media from a CHO line

What was measured:
[1] = tested on: recombinant murine EPO receptor expressed in COS cells; experiment: Erythropoietin surface binding assay on COS-EPO-R transfectants (clone 190); design: species or system mouse
Method: FIG. 5 is a saturation curve showing the binding of iodinated EPO to cells expressing recombinant EPO-receptors. COS-EPO-R transfectants were incubated with various concentrations of radioiodinated human EPO for eight hours at 4° C. Non-specific binding was determined by incubating radioiodinated EPO with COS-1 monolayers, mock treated with the pXM vector (without the EPO-R cDNA insert). Also, for comparison, one binding point was determined for [^125 I]-EPO binding to COS EPO-R transfectants in the presence of […] unlabeled EPO. The inset is a Scatchard plot of the same data. Binding was compared for COS transfectants expressing EPO-R (specific binding) versus COS cells mock-transfected with the pXM plasmid without the EPO-R cDNA insert (non-specific binding). At all EPO concentrations, specific binding was approximately […] the binding to mock-transfected cells. By the above criterion, over 85% of this binding is deemed specific, though the "non-specific" binding could represent low-affinity binding to the transfected EPO receptor. […] Confluent monolayers of MEL cells, grown in 60 mm bacteriophage petri dishes pre-coated with fibronectin, were prepared (Patel and Lodish, supra (1987)). Confluent monolayers of COS-1 cells, transfected by the DEAE dextran method 72 hours before the binding assay with either two micrograms of clone 190 cDNA in pXM or two micrograms of pXM without cDNA insert (mock-transfected) per monolayer, were prepared. Monolayers were washed at 4° C. with HBS/Hepes three times. Radioiodinated EPO (10 pM to 2nM range) was added to each monolayer in LBB. Incubations were performed at 4° C. for eight hours with gentle rocking. Monolayers were washed, solubilized, and counted in the gamma counter as described. Assays for nonspecific binding were performed in which the assay mixture contained a 100-fold excess 1(100 nM) of unlabeled erythropoietin. The radioactivity bound in the assays with excess unlabeled erythropoietin (nonspecific binding) was subtracted from the total binding to yield the specific binding. All binding assays were run in duplicate.

[2] = tested on: EPO receptor on MEL cells; experiment: Erythropoietin surface binding assay on MEL cell monolayers; design: species or system mouse; conditions: single affinity; radioiodinated human EPO, 8 hours at 4° C.; read-out: affinity of MEL cell EPO-R for EPO
Method: FIG. 4 is a saturation curve showing the binding of iodinated EPO to MEL cells. Non-specific binding was determined by co-incubation with 100 nM of unlabeled EPO. The MEL cells were grown on fibronectin monolayers and were incubated with various concentrations of radioiodinated human EPO for eight hours at 4° C. The specific binding is shown as the difference between total and non-specific binding. The inset is a Scatchard plot of the same data. […] For these experiments, MEL cells, grown as monolayers on fibronectin coated dishes, were incubated for eight hours at 4° C. with ^125 I EPO. Specific binding and nonspecific binding of [^125 I]-EPO, measured in the presence of 100 nM unlabeled EPO was determined. Nonspecific binding was approximately half of the total (=specific plus nonspecific) binding. Because of the relatively low number of EPO-R on MEL cells and, therefore, the small specific binding observed at low concentrations of [^125 I-EPO], in the 10-50 pM range, it is not possible to rule out a high affinity EPO-R in this range. […] Monolayers were washed, solubilized, and counted in the gamma counter as described. […] The radioactivity bound in the assays with excess unlabeled erythropoietin (nonspecific binding) was subtracted from the total binding to yield the specific binding. […]

[3] = molecular target: human EPO receptor; experiment: Erythropoietin surface binding assay on stable CHO lines expressing the human EPO receptor; conditions: one hour at 37° C.
Method: Confluent monolayers of MEL cells, grown in 60 mm bacteriophage petri dishes pre-coated with fibronectin, were prepared (Patel and Lodish, supra (1987)). Confluent monolayers of COS-1 cells, transfected by the DEAE dextran method 72 hours before the binding assay with either two micrograms of clone 190 cDNA in pXM or two micrograms of pXM without cDNA insert (mock-transfected) per monolayer, were prepared. Monolayers were washed at 4° C. with HBS/Hepes three times. Radioiodinated EPO (10 pM to 2nM range) was added to each monolayer in LBB. Incubations were performed at 4° C. for eight hours with gentle rocking. Monolayers were washed, solubilized, and counted in the gamma counter as described. Assays for nonspecific binding were performed in which the assay mixture contained a 100-fold excess 1(100 nM) of unlabeled erythropoietin. The radioactivity bound in the assays with excess unlabeled erythropoietin (nonspecific binding) was subtracted from the total binding to yield the specific binding. All binding assays were run in duplicate. The level of cell surface expression of the human EPO receptor was determined by the erythropoietin surface binding assay, described above for the expression of the murine EPO receptor in COS-1 cells, except that radioiodinated EPO, from 10 pM to 2 nM, was bound for one hour at 37° C. in the presence of 0.02% (w/v) sodium azide and 1% (v/v) aprotinin.

[4] = molecular target: EPO receptor; conditions: most cell surface binding studies; read-out: Kd, single class of binding sites; cited from earlier work
[5] = purified, homogeneous erythropoietin; cited from earlier work
[6] = molecular target: EPO-responsive splenic erythroblasts; conditions: FVA-injected mice, cited from earlier work
[7] = tested on: FDCPE cells; experiment: Inhibition of the EPO response of FDCPE cells by secreted EPO receptor; assay type: cell-based, mouse; conditions: 0.4, 0.8 and 1 u/ml EPO; serial dilutions of CHO conditioned media (ca. 0.5 μg/ml secreted receptor)
Method: The FDCPE and 32DE cell lines were further characterized by their dose dependent response to EPO. A 96 well plate was seeded with 1×10^4 cells/well and incubated with EPO (0.0001 to 10 u/ml) for 24 hours and then labelled with [^3 H]-thymidine for 4hr, the cells were collected and counted for thymidine incorporation. The cells respond to EPO dose dependent manner from 0.01 to 1 u/ml.
FDCPE cells were incubated and assayed with either 0.4, 0.8 and 1 u/ml of EPO as described above but also with serial dilutions of media from a CHO line expressing the secreted EPO receptor (ca. 0.5 μg/ml).

Molecule	Kd ([1]; COS transfectants, Scatchard analysis, 8 hours at 4° C., read-out: dissociation constant, high affinity receptor)	Kd ([1]; COS transfectants, Scatchard analysis, 8 hours at 4° C., read-out: dissociation constant, low affinity receptor)	Kd ([1]; cell type not stated, read-out: dissociation constant of the high affinity receptor)	Kd [2]	Kd ([3]; CHO cell line 9'.250, 34% of sites, Scatchard analysis, read-out: affinity for EPO, higher affinity sites)	Kd ([3]; CHO cell line 9'.250, Scatchard analysis, read-out: affinity for EPO, remainder of sites)	Kd ([3]; CHO cell line 10'.1.25, read-out: affinity for EPO, single affinity)	Kd [4]	specific activity [5]	Kd ([6]; read-out: dissociation constant, high affinity binding site)	Kd ([6]; read-out: dissociation constant, low affinity binding site)	inhibition of [3H]-thymidine incorporation into FDCPE cells [7]
erythropoietin [EPO]	0.03 nM	0.21 nM	0.05 nM	~0.24 nM	0.126 nM	0.66 nM	3 nM	~0.8 nM	at least 160,000 IU per absorbance unit at 280 nanometers	0.1 nM	0.8 nM	
B1												inhibited the incorporation of [^3 H]-thymidine into the FDCPE cells
